Converted amounts (≈) assume the structure as drawn. Read-outs that look alike come from different tables or passages of the source.
Legend:
[1] = tested on: A. baumannii ATCC 17978 pNT165 (carbapenemase producing strain); experiment: In vitro antibacterial assay (MIC); format: cell-based, Acinetobacter baumannii; conditions: iron deficient media, duplicate assays
Method: (§1) Antibacterial assay results of new aztreonam derivatives (27, 30, 32 and 37), aztreonam (9a) and earlier data of conjugate 23 are shown in Table 1. The assays were performed using iron deficient media appropriate for screening siderophore conjugates as described previously. […] As expected, none of the compounds were active against the Gram-positive S. aureus. […] Of special interest is the significant inhibitory activity against problematic strains of A. baumannii and P. aeruginosa, including cephalosporinase and carbapenemase producers (A. baumannii TCC 17978 pNT320 and ATCC 17978 pNT165, respectively) which are on the World Health Organization (WHO) list of multi-drug resistant (MDR) pathogens of greatest concern.

[2] = tested on: A. baumannii ATCC BAA 1797; experiment: In vitro antibacterial assay (MIC); format: cell-based, Acinetobacter baumannii; conditions: duplicate assays
Method: as §1

[3] = tested on: A. baumannii ATCC 17978 pNT320 (cephalosporinase producing strain); experiment: In vitro antibacterial assay (MIC); format: cell-based, Acinetobacter baumannii; conditions: iron deficient media, duplicate assays
Method: as §1

A. baumannii ATCC 17961 = experiment: In vitro antibacterial assay (MIC); format: cell-based, Acinetobacter baumannii; conditions: duplicate assays
Method: as §1

P. aeruginosa ARC 3502 = experiment: In vitro antibacterial assay (MIC); format: cell-based, Pseudomonas aeruginosa; conditions: iron deficient media, duplicate assays
Method: as §1

P. aeruginosa 01 = experiment: In vitro antibacterial assay (MIC); format: cell-based, Pseudomonas aeruginosa; conditions: iron deficient media, duplicate assays
Method: as §1

P. aeruginosa ISR14-004 = experiment: In vitro antibacterial assay (MIC); format: cell-based, Pseudomonas aeruginosa; conditions: iron deficient media, duplicate assays
Method: as §1

P. aeruginosa ISR14-003 = experiment: In vitro antibacterial assay (MIC); format: cell-based, Pseudomonas aeruginosa; conditions: iron deficient media, duplicate assays
Method: as §1

P. mirabilis X235 = experiment: In vitro antibacterial assay (MIC); format: cell-based; conditions: iron deficient media, duplicate assays
Method: as §1

E. aerogenes X816 = experiment: In vitro antibacterial assay (MIC); format: cell-based; conditions: iron deficient media, duplicate assays
Method: as §1

B. dolosa AU0018 = experiment: In vitro antibacterial assay (MIC); format: cell-based
Method: as §1

C. freundii ATCC 19063 = experiment: In vitro antibacterial assay (MIC); format: cell-based; conditions: iron deficient media, duplicate assays
Method: as §1

S. aureus SG511 = experiment: In vitro antibacterial assay (MIC); format: cell-based; conditions: iron deficient media, duplicate assays
Method: as §1

[4] = tested on: K. pneumoniae ATCC 8303 X68; experiment: In vitro antibacterial assay (MIC); format: cell-based; conditions: duplicate assays
Method: as §1

Gram-negative bacteria [5] = experiment: Antibacterial activity, summary statements; format: cell-based; conditions: in words; for activity against Gram-negative bacteria that are resistant to aztreonam: iron deficient media
Method: as §1

E. coli DCO = experiment: In vitro antibacterial assay (MIC); format: cell-based, Escherichia coli; conditions: iron deficient media, duplicate assays
Method: as §1

P. aeruginosa KW799/wt = experiment: In vitro antibacterial assay (MIC); format: cell-based, Pseudomonas aeruginosa; conditions: iron deficient media, duplicate assays
Method: as §1

Gram-negative bacteria [6] = conditions: in words, cited from earlier work
[7] = Acinetobacter baumannii, ATCC17978, A. baumannii ATCC 17978 pNT165, carbapenemase producing
[8] = Acinetobacter baumannii, BAA1797, iron deficient media
[9] = A. baumannii ATCC 17978 pNT320, cephalosporinase producing
[10] = Acinetobacter baumannii, ATCC17978, A. baumannii ATCC 17978 pNT320, cephalosporinase producing
[11] = Acinetobacter baumannii, ATCC17961, iron deficient media
[12] = Pseudomonas aeruginosa, ARC3502, P. aeruginosa ARC 3502, read-out: MIC
[13] = Pseudomonas aeruginosa, 01, P. aeruginosa 01
[14] = P. aeruginosa ISR14-004, read-out: MIC
[15] = Pseudomonas aeruginosa, ISR14004, P. aeruginosa ISR14-004, read-out: MIC
[16] = Pseudomonas aeruginosa, ISR14003, P. aeruginosa ISR14-003, read-out: MIC
[17] = Proteus mirabilis, X235, P. mirabilis X235
[18] = Klebsiella aerogenes, X816, E. aerogenes X816
[19] = Citrobacter freundii, ATCC19063, C. freundii ATCC 19063
[20] = Klebsiella pneumoniae, ATCC8303, iron deficient media
[21] = Pseudomonas aeruginosa, KW799/WT

SMILES | MIC [1, 7] | MIC [2, 8] | MIC [3, 9] | MIC [3, 10] | MIC (A. baumannii ATCC 17961; [11]) | MIC (P. aeruginosa ARC 3502; [12]) | MIC (P. aeruginosa 01; P. aeruginosa 01) | MIC (P. aeruginosa 01; [13]) | MIC (P. aeruginosa ISR14-004; [14]) | MIC (P. aeruginosa ISR14-004; [15]) | MIC (P. aeruginosa ISR14-003; [16]) | MIC (P. mirabilis X235; [17]) | MIC (E. aerogenes X816; [18]) | MIC (C. freundii ATCC 19063; [19]) | MIC (S. aureus SG511; Staphylococcus aureus) | MIC [4, 20] | activity compared to bis-catechol conjugate 23 (Gram-negative bacteria [5]) | activity against Gram-negative bacteria that are resistant to aztreonam (Gram-negative bacteria [5]) | MIC (E. coli DCO; Escherichia coli) | MIC (P. aeruginosa KW799/wt) | further results
C[C@H]1[C@H](NC(=O)/C(=N\OC(C)(C)C(=O)NCCNC(=O)CN(CCCCNC(=O)c2cccc(O)c2O)C(=O)c2cccc(O)c2O)c2csc(N)n2)C(=O)N1S(=O)(=O)O [Compound 27, (2S,3S)-3-((Z)-18-(2-Aminothiazol-4-yl)-7-(2,3-dihydroxybenzoyl)-1-(2,3-dihydroxy-phenyl)-15,15-dimethyl-1,9,14-trioxo-16-oxa-2,7,10,13,17-pentaazanonadec-17-en-19-amido)-2-methyl-4-oxoazetidine-1-sulfonic acid] | 6 µM (≈ 5.27 µg/mL) | 3 µM (≈ 2.63 µg/mL) | 0.8 µM (≈ 0.702 µg/mL) | 1.6 µM (≈ 1.4 µg/mL) | 0.8 µM (≈ 0.702 µg/mL) | 0.8 µM (≈ 0.702 µg/mL) | 0.6 µM (≈ 0.527 µg/mL) | 0.8 µM (≈ 0.702 µg/mL) | 0.2 µM (≈ 0.176 µg/mL) | 0.4 µM (≈ 0.351 µg/mL) | 0.8 µM (≈ 0.702 µg/mL) | < 0.013 µM | 0.05 µM (≈ 0.0439 µg/mL) | 0.4 µM (≈ 0.351 µg/mL) | > 25 µM | 0.05 µM (≈ 0.0439 µg/mL) | comparable to or better than | notably and unexpectedly active | 0.025 µM (≈ 0.0219 µg/mL) |  | MIC ([1]; A. baumannii ATCC 17978 pNT165, carbapenemase producing): 6.25 µM (≈ 5.49 µg/mL); MIC (P. aeruginosa ARC 3502; P. aeruginosa ARC 3502, read-out: MIC): 1.6 µM (≈ 1.4 µg/mL); MIC (P. aeruginosa ISR14-003; P. aeruginosa ISR14-003, read-out: MIC): 0.4 µM (≈ 0.351 µg/mL); MIC (B. dolosa AU0018; Burkholderia dolosa, AU0018): > 25 µM
CCN(C(C)C)C(C)C.C[C@H]1[C@H](NC(=O)/C(=N\OC(C)(C)C(=O)NOCC(=O)O)c2csc(N)n2)C(=O)N1S(=O)(=O)O [Compound 32, (Z)-2-(2-Aminothiazol-4-yl)-5,5-dimethyl-1-(((2S,3S)-2-methyl-4-oxo-1-sulfoazetidin-3-yl)amino)-1,6-dioxo-4,8-dioxa-3,7-diazadec-2-en-10-oic acid DIPEA salt] |  |  | >25 µM |  |  |  |  |  |  |  |  |  |  |  |  |  |  |  |  | 25 µM | MIC ([2]; iron deficient media): >25 µM; MIC (A. baumannii ATCC 17961; iron deficient media): >25 µM; MIC (P. aeruginosa ARC 3502; P. aeruginosa ARC 3502): >25/(>25) μM; MIC (P. aeruginosa ISR14-004; P. aeruginosa ISR14-004): >25/(25) μM; MIC (P. aeruginosa ISR14-003; P. aeruginosa ISR14-003): >25/(>25) μM; MIC (P. mirabilis X235; P. mirabilis X235): 0.05 µM; MIC (E. aerogenes X816; E. aerogenes X816): 3 µM; MIC (B. dolosa AU0018; B. dolosa AU0018, iron deficient media, duplicate assays): >25/(>25) μM; MIC (C. freundii ATCC 19063; C. freundii ATCC 19063): 3 µM; MIC (S. aureus SG511): >25 µM; MIC ([4]; iron deficient media): 0.8 µM; activity compared to aztreonam (9a) (Gram-negative bacteria [5]): activity comparable to that of aztreonam; MIC (E. coli DCO): 1.6 µM
C[C@H]1[C@H](NC(=O)/C(=N\OC(C)(C)C(=O)O)c2csc(N)n2)C(=O)N1S(=O)(=O)O [Aztreonam 9a, aztreonam, reference compound] | > 25 µM | > 25 µM |  | > 25 µM | > 25 µM | > 25 µM |  |  | 6 µM (≈ 2.61 µg/mL) |  |  |  | 1.6 µM (≈ 0.697 µg/mL) |  | > 25 µM | 0.2 µM (≈ 0.0871 µg/mL) |  |  |  | 3 µM (≈ 1.31 µg/mL) | activity against problematic Gram-negative bacteria (Gram-negative bacteria [6]; including carbapenemase and cephalosporinase producing strains of P. aeruginosa and A. baumannii): not active; MIC (E. aerogenes X816; E. aerogenes X816): 0.8 µM (≈ 0.348 µg/mL); MIC (B. dolosa AU0018; Burkholderia dolosa, B. dolosa AU0018, iron deficient media, duplicate assays, read-out: MIC): > 25 µM
C[C@H]1[C@H](NC(=O)/C(=N\OC(C)(C)C(=O)NOCC(=O)NCCNC(=O)CN(CCCCNC(=O)c2cccc(O)c2O)C(=O)c2cccc(O)c2O)c2csc(N)n2)C(=O)N1S(=O)(=O)O [Compound 30, (2S,3S)-3-((Z)-22-(2-Aminothiazol-4-yl)-7-(2,3-dihydroxybenzoyl)-1-(2,3-dihydroxyphenyl)-19,19-dimethyl-1,9,14,18-tetraoxo-16,20-dioxa-2,7,10,13,17,21-hexaazatricos-21-en-23-amido)-2-methyl-4-oxoazetidine-1-sulfonic acid] |  | 1.6 µM (≈ 1.52 µg/mL) | 1.6 µM (≈ 1.52 µg/mL) | 3 µM (≈ 2.85 µg/mL) | 0.8 µM (≈ 0.761 µg/mL) |  | 0.4 µM (≈ 0.38 µg/mL) | 0.8 µM (≈ 0.761 µg/mL) |  |  | 0.8 µM (≈ 0.761 µg/mL) | < 0.013 µM | 0.05 µM (≈ 0.0475 µg/mL) | 0.4 µM (≈ 0.38 µg/mL) | > 25 µM | 0.05 µM (≈ 0.0475 µg/mL) | comparable to or better than | notably and unexpectedly active | 0.025 µM (≈ 0.0238 µg/mL) | 0.4 µM (≈ 0.38 µg/mL) | MIC (P. aeruginosa KW799/wt; [21]): 0.8 µM (≈ 0.761 µg/mL); MIC (B. dolosa AU0018; Burkholderia dolosa, AU0018): > 25 µM
CC1(C)[C@H](NC(=O)/C(=N\OCc2cc(=O)c(O)cn2O)c2csc(N)n2)C(=O)N1OS(=O)(=O)O [BAL 30072] |  |  |  |  |  |  |  |  |  |  |  |  |  |  |  |  |  |  |  |  | in vitro activity (Gram-negative bacteria [6]; compounds without free carboxylic acids): retained potent in vitro activity
C[C@H]1[C@H](NC(=O)/C(=N\OC(C)(C)C(=O)NCCNC(=O)CN(CCCCNC(=O)c2ccc(O)c(O)c2Cl)C(=O)c2ccc(O)c(O)c2Cl)c2csc(N)n2)C(=O)N1S(=O)(=O)O [Compound 37] | 25 µM (≈ 23.7 µg/mL) | 0.8 µM (≈ 0.757 µg/mL) |  | 0.4 µM (≈ 0.379 µg/mL) | 0.8 µM (≈ 0.757 µg/mL) | 4.5 µM (≈ 4.26 µg/mL) |  | 1.2 µM (≈ 1.14 µg/mL) |  | 0.2 µM (≈ 0.189 µg/mL) | 0.4 µM (≈ 0.379 µg/mL) | < 0.025 µM | 0.8 µM (≈ 0.757 µg/mL) | < 0.025 µM |  | 0.2 µM (≈ 0.189 µg/mL) | comparable to or better than | notably and unexpectedly active | 0.4 µM (≈ 0.379 µg/mL) |  | MIC (P. aeruginosa KW799/wt; [21]): 0.2 µM (≈ 0.189 µg/mL)
